Results reported in patent US5916920A, “3-substituted Bicyclo[3.1.0]hexane-6-carboxylic acids” (Eli Lilly and Company, priority 1996, dated 1999).

Key:
[1] = mouse elevated plus maze model; assay type: in vivo
[2] = mouse conditioned active avoidance response model; assay type: in vivo
Text: (Pfeiffer & Jenney, Ann. N.Y. Acad. Sci., 66:[…], 1957; Maffii, J. Pharm. Pharmacol., 11: 129-139, 1959; Cook & Weidley, Ann; N.Y. Acad. Sci., 66: […], 1957; Janke, Handbook of Experimental Pharmacology, Vol. 55/I, New York: Plenum Press, 1978).

[3] = test system: metabotropic glutamate receptors; experiment: selective displacement of 1S,3R-ACPD-sensitive [^3 H]glutamate binding to rat brain cell membranes; settings: crude membranes of rat forebrain
Experimental: The binding of [^3 H]glutamate was conducted with crude membranes of rat forebrain as described by Schoepp and True. Schoepp and True, Neuroscience Lett., 145, 100-104 (1992) and Wright et al., J. Neurochemisty 63: 938-945 (1994).

Cc1cccc(C[C@@H]2C[C@H]3[C@H](C(=O)O)[C@H]3[C@]2(N)C(=O)O)c1 (relative stereo) [Example 4, 1SR,2SR,3SR,5RS,6SR-Amino-3-((3-methyl)benzyl)bicyclo[3.1.0]hexane-2,6-dicarboxylic acid]
anxiolytic effect in the mouse elevated plus maze model [1]: anxiolytic effect

N[C@@]1(C(=O)O)[C@H](Cc2ccc(F)c(F)c2F)C[C@H]2[C@H](C(=O)O)[C@H]21 (relative stereo) [Example 25, 1SR,2SR,3SR,5RS,6SR-2-Amino-3-((2,3,4-trifluoro)benzyl)bicyclo[3.1.0]hexane-2,6-dicarboxylic acid]
neuroleptic properties in the mouse conditioned active avoidance response model [2]: neuroleptic properties

Mixture of 1SR,2SR,3RS,5RS,6SR-2-amino-3-(3-phenylpropyl)bicyclo[3.1.0]-hexane-2,6-dicarboxylic acid and 1SR, 2RS, 3RS, 5RS, 6SR-2-amino-3-(3-phenylpropyl)bicyclo[3.1.0]hexane-2,6-dicarboxylic acid [Example 1]
IC50 [3]: 320 nM
